The test concerns HER2. Briefly: HER2 whole cell kinase ELISA (first HER2 column of Table 1). The test is classed as cell-based. The note with it: cell line not given. The text has this: The following examples illustrates the ability of the exemplary compounds to inhibit receptor tyrosine kinases, such as HER2 and/or EGFR. The following target cells were used for cellular kinase assays: NIH3T3 clone C7 (Honegger et al., supra) engineered to over-express human EGF receptor; NIH3T3 cells engineered to over-express a chimeric receptor containing the EGFR extracellular domain and the HER2 intracellular kinase domain; the human mammary carcinoma line BT474 (ATCC HTB2) expressing HER2; and the human glioblastoma line U1242 that expresses PDGFR-beta. Growth assays were carried out using human mammary epithelial SKBR3 (ATCC HTB30) cells (SKBR3 cells over-express HER2), SKOV3 (AT(D(D HTB77) human ovarian cancer cell line (SKOV3 cells also over-express HER2), A431 cells (A431 cells over-express EGFR) MCF7 human breast carcinoma cells, MCF7 cells overexpressing the HER2 kinase (MCF7-HER2), NIH3T3 cells, and NIH3T3 cells overexpressing the HER2 kinase (3T3-HER2.
EGFR-HER2 Chimeric Recetor
HER2 kinase activity (EGFR-3T3) in whole cells was measured as described below:
The materials and regeants are identical to these used in example 1, the EGFR whole cell kinase assay.
A. Coat ELISA plates (Corning, 96 well, Cat. #25805-96) with 05-101 antibody at 0.5 µg per well in PBS, 100 μl final volume/well, and store overnight at 4.sunburst. C. Coated plates are good for up to 10 days when stored at 4° C.
B. On day of use, remove coating buffer and replace with 100 μl blocking buffer (5% Carnation Instant Non-Fat Dry Milk in PBS). Incubate the plate, shaking, at room temperature (about 23.sunburst. C. to 25.sunburst. C.) for 30 minutes. Just prior to use, remove blocking buffer and wash plate 4 times with TBST buffer.
A. An NIH3T3 cell line overexpressing a chimeric receptor containing the EGFR extracellular domain and extracellular HER2 kinase domain can be used for this assay.
B. Choose dishes having 80-90% confluence for the experiment. Trypsinize cells and stop reaction by adding 10% fetal bovine serum. Suspend cells in DMEM medium (10% CS DMEM medium) and centrifuge once at 1500 rpm, at room temperature for 5 minutes.
C. Resuspend cells in seeding medium (DMEM, 0.5% bovine serum), and count the cells using trypan blue. Viability above 90% is acceptable. Seed cells in DMEM medium (0.5% bovine serum) at a density of 10,000 cells per well, 100 μl per well, in a 96 well microtiter plate. Incubate seeded cells in 5% CO2 at 37.sunburst. C. for about 40 hours.
A. Check seeded cells for contamination using an inverted microscope. Dilute drug stock (10 mg/ml in DMSO) 1:10 in DMEM medium, then transfer 5 l to a […] well for a final drug dilution of 1:200 and a final DMSO concentration of 1%. Control wells receive DMSO alone. Incubate in 5% CO2 at 37° C. for two hours.
B. Prepare EGF ligand: dilute stock EGF in DMEM so that upon transfer of 10 μl dilute EGF (1:12 dilution), 100 nM final concentration is attained.
D. After 120 minutes incubation with drug, add prepared […] ligand to cells, 10 μl per well, to a final concentration of 100 nM. Control wells receive DMEM alone. Incubate, shaking, at room temperature, for 5 minutes.
E. Remove drug, EGF, and DMEM. Wash cells twice with PBS. Transfer HNTG* to cells, 100 μl per well. Place on ice for 5 minutes. Meanwhile, remove blocking buffer from other ELISA plate and wash with TBST as described above.
F. With a pipette tip securely fitted to a micropipettor, scrape cells from plate and homogenize cell material by repeatedly aspirating and dispensing the HNTG* lysis buffer. Transfer lysate to a coated, blocked, and washed ELISA plate. Incubate shaking at room temperature for one hour.
G. Remove lysate and wash 4 times with TBST. Transfer freshly diluted anti-Ptyr antibody to ELISA plate at 100 μl per well. Incubate shaking at room temperature for 30 minutes in the presence of the anti-Ptyr antiserum (1:3000 dilution in TBST).
H. Remove the anti-Ptyr antibody and wash 4 times with TBST. […]
(An ELISA detects its analyte on a solid surface through an enzyme-linked reagent.)

Molecules are shown by their SMILES.

Take `CCOC(=O)c1cnc2c(F)ccc(F)c2c1Sc1cccc(C(F)(F)F)c1` [Compound A713, 3-Ethoxycarbonyl-5,8-difluoro-4-(3-trifluoromethylphenylmercapto)quinoline]: the IC50 was 7.9 µM.
The compound `CCOC(=O)c1cnc2ccc(C(F)(F)F)cc2c1NCc1ccccc1C(F)(F)F` [Compound A717, 3-Ethoxycarbonyl-4-(2-trifluoromethylbenzylamino)-6-trifluoromethylquinoline] registered an IC50 of more than 100 µM.
The value for `CCOC(=O)c1cnc2ccc(C(F)(F)F)cc2c1NCc1cccc(C(F)(F)F)c1` [Compound A718, 3-Ethoxycarbonyl-4-(3-trifluoromethylbenzylamino)-6-trifluoromethylquinoline] was more than 100 µM.
The value for `CCOC(=O)c1cnc2ccc(C(F)(F)F)cc2c1NCc1ccc(C(F)(F)F)cc1` [Compound A719, 3-Ethoxycarbonyl-4-(4-trifluoromethylbenzylamino)-6-trifluoromethylquinoline] was more than 100 µM; that for `CCOC(=O)c1cnc2ccc(C(F)(F)F)cc2c1Nc1ccccc1C(F)(F)F` [Compound A720, 3-Ethoxycarbonyl-4-(2-trifluoromethylphenylamino)-6-trifluoromethylquinoline] was more than 100 µM.
The value for `CCOC(=O)c1cnc2ccc(C(F)(F)F)cc2c1Nc1ccccc1C#N` [Compound A723, 4-(2-Cyanophenylamino)-3-ethoxycarbonyl-6-trifluoromethylquinoline] was more than 100 µM; that for `CCOC(=O)c1cnc2ccc(C(F)(F)F)cc2c1Nc1ccc(C#N)cc1` [Compound A725, 4-(4-Cyanophenylamino)-3-ethoxycarbonyl-6-trifluoromethylquinoline] was more than 100 µM.
`CCOC(=O)c1cnc2ccc(C(F)(F)F)cc2c1Nc1ccc(OC)c(OC)c1` [Compound A726, 3-Ethoxycarbonyl-4-(3,4-dimethoxyphenylamino)-6-trifluoromethylquinoline] showed a 50% inhibitory concentration (IC50) of more than 100 µM.
The value for `CCOC(=O)c1cnc2ccc(C(F)(F)F)cc2c1Nc1ccc(Br)cc1` [Compound A727, 4-(4-Bromophenylamino)-3-ethoxycarbonyl-6-trifluoromethylquinoline] was more than 100 µM.
The value for `CCOC(=O)c1cnc2ccc(C(F)(F)F)cc2c1Nc1cccc(Cl)c1` [Compound A728, 4-(3-Chlorophenylamino)-3-ethoxycarbonyl-6-trifluoromethylquinoline] was more than 100 µM; that for `CCOC(=O)c1cnc2ccc(C(F)(F)F)cc2c1Nc1ccc(Cl)cc1` [Compound A729, 4-(4-Chlorophenylamino)-3-ethoxycarbonyl-6-trifluoromethylquinoline] was more than 100 µM; that for `CCOC(=O)c1cnc2c(F)cc(F)cc2c1Sc1ccc(Cl)cc1` [Compound A730, 4-(4-Chlorophenylmercapto)-6,8-difluoro-3-ethoxycarbonylquinoline] was more than 100 µM.
The value for `CCOC(=O)c1cnc2cc(Cl)c(F)cc2c1Sc1ccc(Cl)cc1` [Compound A731, 7-Chloro-4-(4-chlorophenylmercapto)-6-fluoro-3-ethoxycarbonylquinoline] was more than 100 µM.
For `CCOC(=O)c1cnc2c(F)ccc(F)c2c1Sc1ccc(Cl)cc1` [Compound A732, 4-(4-Chlorophenylmercapto)-5,8-difluoro-3-ethoxycarbonylquinoline], the half-inhibitory concentration (IC50) amounted to 50 µM.

What is called IC50 is the concentration needed to halve the response being measured. A lower IC50 goes with inhibition by little substance.

Source of the values: patent US5650415A, “Quinoline compounds” (Sugen, Inc., priority 1995, dated 1997).
